This is an account of results in patent publication US5026829A, “Cyclo substituted propyleneamine oxime and its use as a brain imaging agent” (University of Cincinnati, priority 1989, dated 1991).

Data set [1] in a line: Whole body biodistribution by single photon emission computed tomography in normal human volunteers. Type of data set: in vivo. To be noted: intravenous, about 13 millicurries, in %. On the procedure:
(§1) In order to test the whole body biodistribution of the 99m-Tc CB-PAO tracer, three normal human volunteers were tested using single photon emission computed tomography. Whole body images were obtained at 15 minutes, two hours and five hours after an intraveneous injection of about 13 millicurries of Tc-99m d,l-CB-PAO. A dynamic study during the first ten minutes after administration of the tracer defined the time activity curve for brain uptake. The tomographic study was performed at one hour after administration. Venous blood samples were collected at various times up to five hours after administration and urine was collected up to 24 hours after administration.

Data set [2] is described as follows: Comparative in vitro stability of 99m-Tc CB-PAO and 99m-Tc HM-PAO prepared in the same vial (HPLC). The following applies: for Stabilization: CB relative to HM; for CB/HM: ratio of CB to HM percentage; for in vitro stability, in words: 13.4 hours; for percentage of 99m-Tc complex (CB or HM): same vial, HPLC. Type of data set: physicochemical. Here is the method: In order to test the in vitro stability of the 99m-Tc-CB-PAO, 99m-Tc-CB-PAOand 99m-Tc-HMPAO were prepared in the same vial. The CB-PAO and HM-PAO agents were both reacted with pertechnetate in the same vial. This insures that both compositions were subjected to the same characteristics. These were then tested using HPLC. The results showing the percentage of 99m-Tc CB-PAO (labeled CB) and 99m-Tc HM-PAO labeled HM are shown in Table 1 over a period of 0 minutes to 13.4 hours.

The nature of data set [3]: Renal clearance (urine collection) in normal human volunteers. Type of data set: in vivo. Here is the method: as §1
Data set [4] is described as follows: Brain uptake, retention and tomographic brain imaging in normal human volunteers. Type of data set: in vivo. On the procedure:
as §1
The decrease in cerebral activity is only about 5% between 15 minutes and 2 hours after injection. Approximately 24% of the injected dose is cleared through the renal system within five hours and approximately 37% is cleared within 24 hours.

Data set [5] can be described thus: In vitro stability of 99m-Tc-CB-PAO after pH lowering with gentisic acid. To be noted: about 6mM gentisic acid solution added. Format: physicochemical. Here is the method: The d,l isomer is then complexed with 99m-technetium to obtain a brain perfusion imaging agent. To formulate the 99m-Tc-d,l-CB-PAO 5ml of a ligand solution is placed into an evacuated 10 ml vial. The ligand solution contained approximately 0.5 mg/ml of ligand. One hundred and fifty microliters of a tin chloride solution containing 10 mg of tin chloride per 50 ml in water was added. Ten to one hundred microliters of 99m-pertechnetate sodium solution eluted from a molybdenum 99 generator is added to the vial and this is shaken for 10 seconds. An imaging solution can be immediately removed for use.
However, it is preferable that the pH of the solution which upon addition of the stanous chloride is about 8.9 be lowered. Accordingly, gentisic acid was used to lower the pH of the complex. A solution of gentisic acid was made by dissolving 0.0303g of gentisic acid and 30ml saline. 3.0 milliliters of this solution was pipetted into another vial.
An additional 30ml of saline was added. This latter vial was purged with argon for 50 minutes and sealed to yield a solution of about […] in gentisic acid. 1.0-1.2ml of the above solution was added to a 10 ml evacuated vial. 2.5 milliliters of 99m-Tc-CB-PAO previously prepared is then added to this evacuated vial. This was then tested for stability. At 15 minutes, 100% of the 99m-Tc-CB-PAO remained. At 165 minutes again 100% of the 99m-Tc-CB-PAO remained. At 18 hours 98% of the 99m-Tc-CB-PAO remained.

For data set [6] the following is noted: cited from earlier work.
The conditions of data set [7]: background statement; cited from earlier work.

Where only a bound is given, the exact number is not on record here.

As for `CC1=[N+]([O-])[99Tc-2]23(=[O])[N](CC4(CCC4)C[N]2C(C)C(C)=[N+]3O)C1C` (racemic) [99m-Tc CB-PAO], the figures for the “Whole body distribution, Bladder & Urine” value in data set [1] (15'), in data set [1] (2h) and in data set [1] (5h) were 4.2 ± 1.36, 19.4 ± 8.4 and 23.5 ± 2.80, respectively. Besides, the figures for the “Whole body distribution, Blood” value in data set [1] (15'), in data set [1] (2h) and in data set [1] (5h) were 14.9 ± 0.79, 8.3 ± 0.7 and 5.8 ± 0.45, respectively. The “Whole body distribution, Brain” value in data set [1] (15') is on record as 3.6 ± 0.26; in data set [1] (2h), 3.5 ± 0.15; in data set [1] (5h), 3.5 ± 0.11. Also, the “Whole body distribution, Gallbladder” value in data set [1] (15') is recorded as 2.2 ± 0.05; in data set [1] (2h), 2.8 ± 0.7; in data set [1] (5h), 1.7 ± 0.65. In addition, the “Whole body distribution, Liver” value in data set [1] (15') is 26.4 ± 7.1; in data set [1] (2h) it was 25.4 ± 7; in data set [1] (5h), 22.3 ± 9.5. Also, the results for the “Whole body distribution, Lungs” value in data set [1] (15'), in data set [1] (2h) and in data set [1] (5h) were 4.0 ± 0.85, 3.1 ± 0.70 and 2.7 ± 0.72, respectively. The Stabilization came out at 30% in data set [2] (23 min); 50% in data set [2] (74 min); 53% in data set [2] (3.3 h); 140% in data set [2] (12.2 h); 160% in data set [2] (13.4 h); 0% in data set [2] (time 0). In addition, the CB/HM came out at 1.85 in data set [2] (23 min); 2.04 in data set [2] (74 min); 2.11 in data set [2] (3.3 h); 3.29 in data set [2] (12.2 h); 3.58 in data set [2] (13.4 h); 1.40 in data set [2] (time 0). Besides, the “in vitro stability, in words” value in data set [2] was “most of the 99m-Tc CB-PAO remained”. The “percentage of 99m-Tc complex (CB or HM)” value in data set [2] (time 0) came out at 55.2%. In data set [2] (vs 99m-Tc HM-PAO), the “in vitro stability compared with the prior art brain imaging agent, in words” value is given as “substantially more stable in vitro than the prior art brain imaging agent”. The “injected dose cleared through the renal system” value in data set [3] (within 24 hours) is listed as “approximately 37 % of the injected dose”; in data set [3] (within five hours, 300 min), “Approximately 24 % of the injected dose”. The “decrease in cerebral activity” value in data set [4] (between 15 minutes and 2 hours after injection) is on record as “about 5%”. The “tomographic brain image quality, in words” value in data set [4] (tomographic study at one hour after administration) was “good definition of cerebral structures and good distinction between grey and white matter”. Further, the “stability of brain uptake, in words” value in data set [4] (up to five hours after injection) was “stable for up to five hours”. Besides, the “injected dose taken up by the brain” value in data set [4] (within the first five minutes after intravenous injection) is “Approximately 3.6 % of the injected dose”. Further, the 99m-Tc-CB-PAO remaining in data set [5] (15 minutes) was 100%; in data set [5] (165 minutes), 100%; in data set [5] (18 hours), 98%.
Consider `C/C(=N\O)[C@@H](C)NCC(C)(C)CN[C@H](C)/C(C)=N/O` [99m-Tc HM-PAO, 4,8,-diaza-3,6,6,9-tetramethyl undecane-2,10-dione bisoxime, metal not drawn], for which the “in vitro stability, in words” value in data set [2] was “most of the 99m-Tc HM-PAO had decomposed”. Further, in data set [2] (time 0), the “percentage of 99m-Tc complex (CB or HM)” value is reported as 39.5%. For the same molecule, the “aqueous in vitro degradation rate, in words” value in data set [6] (J. Nucl. Med. 1988) is “slow”. Besides, in data set [6] (aqueous, without stabilizer, J. Nucl. Med. 1988), the “time after formulation within which it must be administered” value is ≤ 30 min. Moreover, the “time after preparation within which it must be used, in words” value in data set [6] (stabilized with gentisic acid within 30 seconds after formation) is “must be used within hours after preparation”. For the same molecule, the “brain passage and retention, in words” value in data set [7] is “passes through the blood brain barrier, is theoretically altered in some way, and remains in the brain for a period of time sufficient to obtain a successful brain image”.
